Experimental data: patent publication US20260217708A1, “FUSED BENZAZEPINE DERIVATIVES FOR USE IN THE TREATMENT OF CANCER AND EPILEPSY” (UCB BIOPHARMA SRL, priority 2023, published 2026)

Tests used:
system Xc^− [1] = biological target: T1, system Xc^− (Homo sapiens, UniProt Q9UPY5); experiment: Cystine-induced glutamate release assay; assay type: cell-based; parameters: endogenous in cells; host or cells: H4 cells; conditions: H4 cells, sodium-free HEPES buffer, 50 μM L-Cystine, 2 hours, Amplex Red glutamate readout; read-out: pIC50 Cystine-induced glutamate release assay (converted)
T1 sequence (Q9UPY5 1-501): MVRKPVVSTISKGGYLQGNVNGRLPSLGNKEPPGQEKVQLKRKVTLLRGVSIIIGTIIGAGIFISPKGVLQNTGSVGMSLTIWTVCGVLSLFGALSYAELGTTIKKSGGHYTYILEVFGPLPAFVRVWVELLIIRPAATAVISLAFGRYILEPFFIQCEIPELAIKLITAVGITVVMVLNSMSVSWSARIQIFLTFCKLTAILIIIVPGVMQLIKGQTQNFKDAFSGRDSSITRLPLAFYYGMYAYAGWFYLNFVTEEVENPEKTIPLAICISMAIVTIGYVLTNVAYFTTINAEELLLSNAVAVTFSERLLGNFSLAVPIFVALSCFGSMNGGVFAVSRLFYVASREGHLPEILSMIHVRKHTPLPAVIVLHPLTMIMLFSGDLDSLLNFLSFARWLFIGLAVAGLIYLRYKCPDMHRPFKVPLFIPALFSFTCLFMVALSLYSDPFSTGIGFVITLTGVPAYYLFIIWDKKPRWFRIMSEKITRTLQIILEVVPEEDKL
T1 sequence (P08195 1-529 partner): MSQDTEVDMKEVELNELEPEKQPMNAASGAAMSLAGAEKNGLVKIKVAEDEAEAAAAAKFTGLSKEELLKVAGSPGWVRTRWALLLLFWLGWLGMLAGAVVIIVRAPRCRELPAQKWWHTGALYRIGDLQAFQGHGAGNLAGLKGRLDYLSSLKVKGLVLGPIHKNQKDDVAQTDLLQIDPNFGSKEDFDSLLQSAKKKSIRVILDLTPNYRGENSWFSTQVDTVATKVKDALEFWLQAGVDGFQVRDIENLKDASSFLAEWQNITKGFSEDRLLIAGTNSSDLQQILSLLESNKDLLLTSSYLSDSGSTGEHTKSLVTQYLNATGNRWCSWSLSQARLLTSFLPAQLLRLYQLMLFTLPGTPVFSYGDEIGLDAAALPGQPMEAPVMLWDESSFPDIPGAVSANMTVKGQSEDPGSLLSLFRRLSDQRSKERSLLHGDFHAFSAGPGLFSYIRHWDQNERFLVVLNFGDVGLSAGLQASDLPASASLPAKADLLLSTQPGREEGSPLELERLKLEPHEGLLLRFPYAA
How it was run: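 H4 cells in sodium-free HEPES buffer (pH 7.4), 2 days after plating; glutamate release induced with 50 μM L-cystine plus compound (1% DMSO), 2 h at 37 °C. Supernatant glutamate measured by Amplex Red fluorescence; IC50/pIC50 derived between 1% DMSO and 50 μM erastin controls.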

system Xc^− [2] = biological target: T1, system Xc^−; experiment: [^14C]L-Cystine uptake assay; assay type: cell-based; parameters: endogenous in cells; host or cells: H4 cells; conditions: H4 cells, sodium-free HEPES buffer, 0.5 μM L-[14C]Cystine and 4.5 μM L-Cystine, 1 hour at 37° C.; read-out: pIC50 [^14C] L-Cystine uptake assay (converted)
How it was run: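 H4 cells at 5×10^4 cells/well in sodium-free HEPES buffer were preincubated 15 min with compounds (1% DMSO). Uptake of 0.5 μM [14C]L-cystine plus 4.5 μM unlabelled L-cystine ran 1 hour at 37° C on scintillating plates. IC50 was set between 1% DMSO and 50 μM Erastin controls and expressed as pIC50.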

SMILES | IC50 (system Xc^− [1]) | IC50 (system Xc^− [2])
Cc1cc2c(cn1)-c1cccnc1CC(=O)N2CC(=O)Nc1ccc(C(F)(F)F)cc1 [#36, 2-(5-methyl-9-oxo-4,8,12-triazatricyclo[9.4.0.0^2,7]pentadeca-1(11),2(7),3,5,12,14-hexaen-8-yl)-N-[4-(trifluoromethyl)phenyl]acetamide] | 0.0398 to 0.1 µM | 0.1 to 0.501 µM
O=C(CN1C(=O)Cn2nccc2-c2cnc(Cl)cc21)Nc1ccc(C(F)(F)F)cc1 [#37, 2-(12-chloro-8-oxo-5,6,9,13-tetrazatricyclo[8.4.0.0^2,6]tetradeca-1(10),2,4,11,13-pentaen-9-yl)-N-[4-(trifluoromethyl)phenyl]acetamide] | 0.1 to 0.501 µM | 0.1 to 0.501 µM
Cc1cc2c(c(F)n1)-c1ncccc1CC(=O)N2CC(=O)Nc1ccc(C(F)(F)F)cc1 [#38, 2-(15-fluoro-13-methyl-9-oxo-3,10,14-triazatricyclo[9.4.0.0^2,7]pentadeca-1(11),2(7),3,5,12,14-hexaen-10-yl)-N-[4-(trifluoromethyl)phenyl]acetamide] | 0.1 to 0.501 µM | 0.1 to 0.501 µM
Cc1cc2c(c(F)n1)-c1ccccc1CC(=O)N2CC(=O)Nc1ccc(C(F)(F)F)cc1 [#39, 2-(1-fluoro-3-methyl-6-oxo-7H-pyrido[4,3-d][3]benzazepin-5-yl)-N-[4-(trifluorometh-yl)phenyl]acetamide] | 0.0158 to 0.0398 µM | 0.0158 to 0.0398 µM
Cc1cc2c(c(F)n1)-c1cccnc1CC(=O)N2CC(=O)Nc1ccc(C(F)(F)F)cc1 [#40, 2-(3-fluoro-5-methyl-9-oxo-4,8,12-triaza-tricyclo[9.4.0.0^2,7]pentadeca-1(11),2(7), 3,5,12,14-hexaen-8-yl)-N-[4-(trifluoro-methyl)phenyl]acet-amide] | 0.0158 to 0.0398 µM | < 0.0158 µM
Cc1cc2c(c(F)n1)-c1ncccc1CC(=O)N2CC(=O)Nc1ccc(Cl)c(F)c1 [#41, N-(4-chloro-3-fluoro-phenyl)-2-(15-fluoro-13-methyl-9-oxo-3,10,14-triazatricyclo [9.4.0.0^2,7]pentadeca-1(11),2(7),3,5,12,14-hexaen-10-yl)acetamide] | 0.1 to 0.501 µM | 0.1 to 0.501 µM
Cc1cc2c(c(F)n1)-c1sccc1CC(=O)N2CC(=O)Nc1ccc(C(F)(F)F)cc1 [#42, 2-(14-fluoro-12-meth-yl-8-oxo-3-thia-9,13-diazatricyclo[8.4.0.0^2,6]tetradeca-1(10),2(6), 4,11,13-pentaen-9-yl)-N-[4-(trifluorometh-yl)phenyl]acetamide] | 0.0398 to 0.1 µM | 0.0398 to 0.1 µM
O=C(CN1C(=O)Cc2ncccc2-c2c1cc(F)nc2F)Nc1ccc(C(F)(F)F)cc1 [#43, 2-(3,5-difluoro-9-oxo-4,8,12-triazatricyclo [9.4.0.0^2,7]pentadeca-1(11),2,4,6,12,14-hexaen-8-yl)-N-[4-(trifluoromethyl)phen-yl]acetamide] | 0.0398 to 0.1 µM | 0.1 to 0.501 µM
Cc1cc2c(cn1)-c1ccc(Cl)cc1CC(=O)N2CC(=O)Nc1ccc(C(F)(F)F)cc1 [#44, 2-(9-chloro-3-methyl-6-oxo-7H-pyrido[4,3-d][3]benzazepin-5-yl)-N-[4-(trifluoromethyl)phenyl]acetamide] | 0.0398 to 0.1 µM | 0.0398 to 0.1 µM
Cc1cncc2c1-c1ccccc1CC(=O)N2CC(=O)Nc1ccc(C(F)(F)F)cc1 [#45, 2-(1-methyl-6-oxo-7H-pyrido[3,4-d][3]benzazepin-5-yl)-N-[4-(trifluoromethyl)phenyl]acetamide] | 0.0398 to 0.1 µM | 0.1 to 0.501 µM
CN1CCN(c2cc3c(cn2)-c2ccccc2CC(=O)N3CC(=O)Nc2ccc(C(F)(F)F)cc2)CC1=O [#46, 2-[3-(4-methyl-3-oxo-piperazin-1-yl)-6-oxo-7H-pyrido[4,3-d][3]benzazepin-5-yl]-N-[4-(trifluoromethyl)phenyl]acetamide] | 0.0398 to 0.1 µM | 0.0158 to 0.0398 µM
O=C(CN1C(=O)Cc2ccccc2-c2cnc(N3CC(F)(F)C3)cc21)Nc1ccc(C(F)(F)F)cc1 [#47, 2-[3-(3,3-difluoroazetidin-1-v)-6-oxo-7H-pyrido[4,3-d][3]benzazepin-5-yl]-N-[4-(trifluoromethyl)phenyl]acetamide] | 0.0398 to 0.1 µM | 0.0158 to 0.0398 µM
Cc1cc2c(cn1)-c1ccnn1CC(=O)N2CC(=O)Nc1ccc(C(F)(F)F)cc1 [#48, 2-(12-methyl-8-oxo-5,6,9,13-tetrazatricyclo[8.4.0.0^2,6]tetradeca-1(10),2,4,11,13-pentaen-9-yl)-N-[4-(trifluoromethyl)phenyl]acetamide] | 0.1 to 0.501 µM | 0.1 to 0.501 µM
Cc1cc2c(c(Cl)n1)-c1ccccc1CC(=O)N2CC(=O)Nc1ccc(C(F)(F)F)cc1 [#49, 2-(1-chloro-3-methyl-6-oxo-7H-pyrido[4,3-d][3]benzazepin-5-yl)-N-[4-(trifluoromethyl)phenyl]acetamide] | 0.0158 to 0.0398 µM | < 0.0158 µM
Cc1cc2c(c(Cl)n1)-c1ccccc1CC(=O)N2CC(=O)Nc1ccc(Cl)c(F)c1 [#50, N-(4-chloro-3-fluoro-phenyl)-2-(1-chloro-3-methyl-6-oxo-7H-pyrido[4,3-d][3]benz-azepin-5-yl)acetamide] | 0.0398 to 0.1 µM | < 0.0158 µM
O=C(CN1C(=O)Cc2cc(F)ccc2-c2c1ccnc2Cl)Nc1ccc(C(F)(F)F)cc1 [#51, 2-(1-chloro-9-fluoro-6-oxo-7H-pyrido[4,3-d][3]benzazepin-5-yl)-N-[4-(trifluoromethyl)-phenyl]acetamide] | 0.0398 to 0.1 µM | < 0.0158 µM
O=C(CN1C(=O)Cc2ncccc2-c2c1cc(Cl)c(F)c2Cl)Nc1ccc(C(F)(F)F)cc1 [#52, 2-(9,11-dichloro-10-fluoro-6-oxo-5H-pyrido[2,3-d][1]benz-azepin-7-yl)-N-[4-(trifluoromethyl)phen-yl]acetamide] | 0.1 to 0.501 µM | 0.1 to 0.501 µM
O=C(CN1C(=O)Cc2ncccc2-c2c1ccnc2Cl)Nc1ccc(C(F)(F)F)cc1 [#53, 2-(3-chloro-9-oxo-4,8,12-triazatricyclo [9.4.0.0^2,7]pentadeca-1(11),2(7),3,5,12,14-hexaen-8-yl)-N-[4-(trifluoromethyl)phen-yl]acetamide] | 0.1 to 0.501 µM | 0.0398 to 0.1 µM
N#Cc1ccc2c(c1F)-c1cccnc1CC(=O)N2CC(=O)Nc1ccc(C(F)(F)F)cc1 [#54, 2-(10-cyano-11-fluoro-6-oxo-5H-pyrido[2,3-d][1]benzazepin-7-yl)-N-[4-(trifluoromethyl)-phenyl]acetamide] | 0.1 to 0.501 µM | 0.0398 to 0.1 µM
Cc1cc2c(c(O)n1)-c1ccccc1CC(=O)N2CC(=O)Nc1ccc(C(F)(F)F)cc1 [#55, 2-(1-hydroxy-3-methyl-6-oxo-7H-pyrido[4,3-d][3]benzazepin-5-yl)-N-[4-(trifluoromethyl)phenyl]acetamide] | 0.0398 to 0.1 µM | 0.1 to 0.501 µM
Cc1cc2c(c(C(F)F)n1)-c1ccccc1CC(=O)N2CC(=O)Nc1ccc(C(F)(F)F)cc1 [#56, 2-[1-(difluoromethyl)-3-methyl-6-oxo-7H-pyrido[4,3-d][3]benzazepin-5-yl]-N-[4-(trifluoromethyl)phenyl]acetamide] | 0.0398 to 0.1 µM | 0.0398 to 0.1 µM
Cc1cc2c(c(C)n1)-c1cccnc1CC(=O)N2CC(=O)Nc1ccc(C(F)(F)F)cc1 [#57, 2-(3,5-dimethyl-9-oxo-4,8,12-triazatricyclo[9.4.0.0^2,7]pentadeca-1(11),2(7),3,5,12,14-hexaen-8-yl)-N-[4-(trifluoromethyl)phenyl]acetamide] | 0.0158 to 0.0398 µM | 0.0158 to 0.0398 µM
Cc1cc2c(c(C)n1)-c1cccnc1CC(=O)N2CC(=O)Nc1ccc(C2CC2)cc1 [#58, N-(4-cyclopropylphenyl)-2-(3,5-dimethyl-9-oxo-4,8,12-triazatricyclo[9.4.0.0^2,7]pentadeca-1(11),2(7),3,5,12,14-hexaen-8-yl)acetamide] | 0.0398 to 0.1 µM | 0.1 to 0.501 µM
